# Results taken from publication PMC6509344, “Novel CMKLR1 Inhibitors for Application in Demyelinating Disease” (Scientific Reports, 2019).
# How the values were obtained:
# [1] = target: T1, Cyp2C8 (Homo sapiens, UniProt P10632); test: Cyp enzyme inhibition in human liver microsomes; format: in vitro ADME; details: 30 min pre-incubation
# T1 construct: tissue Cyprotex/Evotec AG; host or cells: human liver microsomes
# T1 sequence (P10632 1-490): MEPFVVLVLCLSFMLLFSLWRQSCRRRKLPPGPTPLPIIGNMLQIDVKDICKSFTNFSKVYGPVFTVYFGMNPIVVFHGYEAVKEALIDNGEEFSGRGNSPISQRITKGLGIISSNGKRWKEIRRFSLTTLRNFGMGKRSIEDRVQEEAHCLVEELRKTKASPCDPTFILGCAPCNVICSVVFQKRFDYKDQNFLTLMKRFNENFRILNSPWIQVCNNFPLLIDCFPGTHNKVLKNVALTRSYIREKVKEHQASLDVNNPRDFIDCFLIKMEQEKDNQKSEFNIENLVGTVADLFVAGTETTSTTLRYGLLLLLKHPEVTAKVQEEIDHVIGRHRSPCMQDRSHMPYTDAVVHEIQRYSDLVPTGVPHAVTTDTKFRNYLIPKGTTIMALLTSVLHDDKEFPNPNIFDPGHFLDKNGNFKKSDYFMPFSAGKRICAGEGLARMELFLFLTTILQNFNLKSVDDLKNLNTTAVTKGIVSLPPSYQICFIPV
# [2] = tested on: Cyp enzymes; test: Time-dependent (mechanism-based) Cyp inhibition; format: in vitro ADME, human; details: not shown
# Method: Human liver microsomes were pre-incubated with 7 concentrations (0.1–100 mM, duplicate wells) of α-NETA for 30 min.
# [3] = target: T2, Cyp2C19 (Homo sapiens, UniProt P33261); test: Cyp enzyme inhibition in human liver microsomes; format: in vitro ADME; details: 30 min pre-incubation
# T2 construct: tissue Cyprotex/Evotec AG; host or cells: human liver microsomes
# T2 sequence (P33261 whole entry): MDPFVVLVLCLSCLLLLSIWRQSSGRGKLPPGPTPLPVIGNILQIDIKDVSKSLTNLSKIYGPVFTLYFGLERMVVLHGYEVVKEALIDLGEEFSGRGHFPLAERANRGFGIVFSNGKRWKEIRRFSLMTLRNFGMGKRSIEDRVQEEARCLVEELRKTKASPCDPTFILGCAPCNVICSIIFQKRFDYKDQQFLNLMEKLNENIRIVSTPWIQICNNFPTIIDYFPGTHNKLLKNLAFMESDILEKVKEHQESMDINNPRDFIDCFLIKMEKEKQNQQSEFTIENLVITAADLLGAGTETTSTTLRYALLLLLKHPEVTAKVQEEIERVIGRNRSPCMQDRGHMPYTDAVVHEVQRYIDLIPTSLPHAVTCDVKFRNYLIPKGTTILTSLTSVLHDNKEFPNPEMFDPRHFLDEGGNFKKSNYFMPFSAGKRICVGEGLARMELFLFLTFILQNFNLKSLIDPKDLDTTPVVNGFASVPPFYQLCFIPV
# [4] = target: T3, Cyp2B6 (Homo sapiens, UniProt P20813); test: Cyp enzyme inhibition in human liver microsomes; format: in vitro ADME; details: 30 min pre-incubation
# T3 construct: tissue Cyprotex/Evotec AG; host or cells: human liver microsomes
# T3 sequence (P20813 1-491): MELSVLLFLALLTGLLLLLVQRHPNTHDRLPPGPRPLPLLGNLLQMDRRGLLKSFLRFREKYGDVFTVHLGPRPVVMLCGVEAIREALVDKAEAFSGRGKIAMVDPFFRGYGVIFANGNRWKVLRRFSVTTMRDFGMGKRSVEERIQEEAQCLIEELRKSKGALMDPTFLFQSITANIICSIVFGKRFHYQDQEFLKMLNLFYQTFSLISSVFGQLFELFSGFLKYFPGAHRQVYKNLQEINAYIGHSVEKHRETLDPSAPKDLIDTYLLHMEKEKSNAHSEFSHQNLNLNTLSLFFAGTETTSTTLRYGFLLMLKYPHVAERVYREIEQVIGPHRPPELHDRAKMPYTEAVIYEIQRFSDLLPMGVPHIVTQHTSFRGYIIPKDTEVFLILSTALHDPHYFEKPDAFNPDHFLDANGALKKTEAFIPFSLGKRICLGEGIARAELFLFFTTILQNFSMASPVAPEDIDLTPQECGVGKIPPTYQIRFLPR
# [5] = target: T4, hERG potassium channel (Homo sapiens, UniProt Q12809); test: hERG inhibition, patch-clamp with CHO-hERG transfectants; format: cell-based; details: hERG tail current, 0.008-25 uM
# T4 construct: host or cells: CHO
# T4 sequence (Q12809 whole entry): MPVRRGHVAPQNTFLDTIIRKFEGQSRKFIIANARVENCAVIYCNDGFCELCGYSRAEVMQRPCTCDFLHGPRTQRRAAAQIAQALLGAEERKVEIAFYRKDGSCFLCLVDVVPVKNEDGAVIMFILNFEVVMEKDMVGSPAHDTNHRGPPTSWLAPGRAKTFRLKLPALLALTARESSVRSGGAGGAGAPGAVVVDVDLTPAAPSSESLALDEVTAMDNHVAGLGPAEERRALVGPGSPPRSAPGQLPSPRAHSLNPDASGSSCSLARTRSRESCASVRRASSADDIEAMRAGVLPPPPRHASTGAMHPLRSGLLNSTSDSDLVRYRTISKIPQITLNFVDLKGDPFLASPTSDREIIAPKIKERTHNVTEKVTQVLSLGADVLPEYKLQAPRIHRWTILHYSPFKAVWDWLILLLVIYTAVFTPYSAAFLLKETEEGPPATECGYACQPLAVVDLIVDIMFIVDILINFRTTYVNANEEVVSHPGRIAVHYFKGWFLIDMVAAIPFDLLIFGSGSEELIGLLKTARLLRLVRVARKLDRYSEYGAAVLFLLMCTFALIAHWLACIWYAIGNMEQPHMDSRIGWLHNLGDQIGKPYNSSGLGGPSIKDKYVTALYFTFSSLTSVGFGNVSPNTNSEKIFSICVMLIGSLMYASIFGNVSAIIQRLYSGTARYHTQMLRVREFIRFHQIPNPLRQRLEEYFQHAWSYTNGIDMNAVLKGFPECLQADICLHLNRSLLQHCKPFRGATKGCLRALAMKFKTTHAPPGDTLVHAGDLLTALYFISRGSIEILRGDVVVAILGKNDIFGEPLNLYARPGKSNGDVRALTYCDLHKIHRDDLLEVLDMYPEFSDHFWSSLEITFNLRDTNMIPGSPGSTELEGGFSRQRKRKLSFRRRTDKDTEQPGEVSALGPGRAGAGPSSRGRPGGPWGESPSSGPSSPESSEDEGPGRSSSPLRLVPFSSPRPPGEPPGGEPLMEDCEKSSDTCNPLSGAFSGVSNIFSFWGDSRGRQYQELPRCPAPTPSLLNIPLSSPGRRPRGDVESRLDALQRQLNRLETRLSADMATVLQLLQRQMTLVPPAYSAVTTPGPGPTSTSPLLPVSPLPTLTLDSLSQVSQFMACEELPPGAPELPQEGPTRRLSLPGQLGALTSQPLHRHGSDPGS
# Method: A patch-clamp assay with single CHO-hERG cell transfectants were used to quantify potential α-NETA-dependent hERG inhibition (2–3 cells per compound concentration). […] The cell was depolarized, and the hERG tail current was measured, and IC50 determined (Cyprotex/Evotec AG).
# [6] = target: T5, Cyp2C9 (Homo sapiens, UniProt P11712); test: Cyp enzyme inhibition in human liver microsomes; format: in vitro ADME; details: 30 min pre-incubation
# T5 construct: tissue Cyprotex/Evotec AG; host or cells: human liver microsomes
# T5 sequence (P11712 whole entry): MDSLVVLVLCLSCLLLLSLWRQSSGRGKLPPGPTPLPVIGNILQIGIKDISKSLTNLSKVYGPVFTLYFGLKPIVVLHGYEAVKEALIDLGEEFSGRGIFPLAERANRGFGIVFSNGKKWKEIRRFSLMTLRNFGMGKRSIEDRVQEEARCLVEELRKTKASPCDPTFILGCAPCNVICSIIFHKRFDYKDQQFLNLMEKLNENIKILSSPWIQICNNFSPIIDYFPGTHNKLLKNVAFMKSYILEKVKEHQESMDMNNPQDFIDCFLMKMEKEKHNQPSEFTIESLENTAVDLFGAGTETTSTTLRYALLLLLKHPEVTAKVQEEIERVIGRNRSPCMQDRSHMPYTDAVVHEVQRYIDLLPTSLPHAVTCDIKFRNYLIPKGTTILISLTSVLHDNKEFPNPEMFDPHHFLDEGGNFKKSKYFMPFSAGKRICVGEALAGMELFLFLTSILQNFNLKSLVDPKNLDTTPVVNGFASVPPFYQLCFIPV
# [7] = Repeat dosing toxicity, 14 days; details: C57BL/6, mouse, in vivo, po; repeated dosing p.o. for up to 14 days; read-out: no-observable-adverse-effect-level (NOAEL)
# Method: Mouse survival was monitored and body weight was measured daily for the length of the study. On day 14 the mice were euthanized and the wet weight for the following tissues: kidney, brain, spleen, liver, heart, and lung, was recorded.
# [8] = tested on: Salmonella typhimurium (TA100); test: Ames test for genotoxicity (AMES-MOD ISO); details: concentrations up to at least 10 uM
# Method: Ames test was completed using the AMES-MOD ISO 96 well format assay, Version 1.1 (Environmental Bio-Detection Products Inc.) according to manufacturer’s instructions. In brief, Salmonella typhimurium (TA100) bacterial strain was exposed to the indicated doses of sodium azide (positive control) or α-NETA solubilized in DMSO (1% DMSO/well, 48 wells/dose completed in triplicate). After 2 h incubation the cells were diluted and cultured in media lacking histidine but containing pH indicator to identify revertant cell growth. After 3 days of incubation at 37 °C, the number of wells containing revertant cells was counted per dose.
structure (smiles),measurement,setting,value
"C[N+](C)(C)CCC(=O)c1cccc2ccccc12.[I-] [α-NETA, 2-(α-naphthoyl) ethyltrimethylammonium iodide]",IC50,[1],1.5 µM
same,time-dependent (mechanism-based) Cyp inhibition,[2],No time-dependent (mechanism-based) Cyp inhibition was detected
same,IC50,[3],84 µM
same,IC50,[4],0.12 µM
same,IC50,[5],10.4 µM
same,IC50,[6],14.6 µM
same,NOAEL at 14 days,[7],≥ 300 mg/kg
same,mutagenesis in Ames test (histidine revertants),[8],did not induce mutagenesis
